{"source": "patent US20060134230A1", "about": "“Weight loss composition and formulation” (priority 2004, published 2006)", "origin": "cited, not measured here", "key": {"[1]": {"system": "oxidative phosphorylation"}, "[2]": {"target": "fatty acid synthase (Homo sapiens, UniProt P49327)", "sequence (P49327 whole entry, species assumed)": "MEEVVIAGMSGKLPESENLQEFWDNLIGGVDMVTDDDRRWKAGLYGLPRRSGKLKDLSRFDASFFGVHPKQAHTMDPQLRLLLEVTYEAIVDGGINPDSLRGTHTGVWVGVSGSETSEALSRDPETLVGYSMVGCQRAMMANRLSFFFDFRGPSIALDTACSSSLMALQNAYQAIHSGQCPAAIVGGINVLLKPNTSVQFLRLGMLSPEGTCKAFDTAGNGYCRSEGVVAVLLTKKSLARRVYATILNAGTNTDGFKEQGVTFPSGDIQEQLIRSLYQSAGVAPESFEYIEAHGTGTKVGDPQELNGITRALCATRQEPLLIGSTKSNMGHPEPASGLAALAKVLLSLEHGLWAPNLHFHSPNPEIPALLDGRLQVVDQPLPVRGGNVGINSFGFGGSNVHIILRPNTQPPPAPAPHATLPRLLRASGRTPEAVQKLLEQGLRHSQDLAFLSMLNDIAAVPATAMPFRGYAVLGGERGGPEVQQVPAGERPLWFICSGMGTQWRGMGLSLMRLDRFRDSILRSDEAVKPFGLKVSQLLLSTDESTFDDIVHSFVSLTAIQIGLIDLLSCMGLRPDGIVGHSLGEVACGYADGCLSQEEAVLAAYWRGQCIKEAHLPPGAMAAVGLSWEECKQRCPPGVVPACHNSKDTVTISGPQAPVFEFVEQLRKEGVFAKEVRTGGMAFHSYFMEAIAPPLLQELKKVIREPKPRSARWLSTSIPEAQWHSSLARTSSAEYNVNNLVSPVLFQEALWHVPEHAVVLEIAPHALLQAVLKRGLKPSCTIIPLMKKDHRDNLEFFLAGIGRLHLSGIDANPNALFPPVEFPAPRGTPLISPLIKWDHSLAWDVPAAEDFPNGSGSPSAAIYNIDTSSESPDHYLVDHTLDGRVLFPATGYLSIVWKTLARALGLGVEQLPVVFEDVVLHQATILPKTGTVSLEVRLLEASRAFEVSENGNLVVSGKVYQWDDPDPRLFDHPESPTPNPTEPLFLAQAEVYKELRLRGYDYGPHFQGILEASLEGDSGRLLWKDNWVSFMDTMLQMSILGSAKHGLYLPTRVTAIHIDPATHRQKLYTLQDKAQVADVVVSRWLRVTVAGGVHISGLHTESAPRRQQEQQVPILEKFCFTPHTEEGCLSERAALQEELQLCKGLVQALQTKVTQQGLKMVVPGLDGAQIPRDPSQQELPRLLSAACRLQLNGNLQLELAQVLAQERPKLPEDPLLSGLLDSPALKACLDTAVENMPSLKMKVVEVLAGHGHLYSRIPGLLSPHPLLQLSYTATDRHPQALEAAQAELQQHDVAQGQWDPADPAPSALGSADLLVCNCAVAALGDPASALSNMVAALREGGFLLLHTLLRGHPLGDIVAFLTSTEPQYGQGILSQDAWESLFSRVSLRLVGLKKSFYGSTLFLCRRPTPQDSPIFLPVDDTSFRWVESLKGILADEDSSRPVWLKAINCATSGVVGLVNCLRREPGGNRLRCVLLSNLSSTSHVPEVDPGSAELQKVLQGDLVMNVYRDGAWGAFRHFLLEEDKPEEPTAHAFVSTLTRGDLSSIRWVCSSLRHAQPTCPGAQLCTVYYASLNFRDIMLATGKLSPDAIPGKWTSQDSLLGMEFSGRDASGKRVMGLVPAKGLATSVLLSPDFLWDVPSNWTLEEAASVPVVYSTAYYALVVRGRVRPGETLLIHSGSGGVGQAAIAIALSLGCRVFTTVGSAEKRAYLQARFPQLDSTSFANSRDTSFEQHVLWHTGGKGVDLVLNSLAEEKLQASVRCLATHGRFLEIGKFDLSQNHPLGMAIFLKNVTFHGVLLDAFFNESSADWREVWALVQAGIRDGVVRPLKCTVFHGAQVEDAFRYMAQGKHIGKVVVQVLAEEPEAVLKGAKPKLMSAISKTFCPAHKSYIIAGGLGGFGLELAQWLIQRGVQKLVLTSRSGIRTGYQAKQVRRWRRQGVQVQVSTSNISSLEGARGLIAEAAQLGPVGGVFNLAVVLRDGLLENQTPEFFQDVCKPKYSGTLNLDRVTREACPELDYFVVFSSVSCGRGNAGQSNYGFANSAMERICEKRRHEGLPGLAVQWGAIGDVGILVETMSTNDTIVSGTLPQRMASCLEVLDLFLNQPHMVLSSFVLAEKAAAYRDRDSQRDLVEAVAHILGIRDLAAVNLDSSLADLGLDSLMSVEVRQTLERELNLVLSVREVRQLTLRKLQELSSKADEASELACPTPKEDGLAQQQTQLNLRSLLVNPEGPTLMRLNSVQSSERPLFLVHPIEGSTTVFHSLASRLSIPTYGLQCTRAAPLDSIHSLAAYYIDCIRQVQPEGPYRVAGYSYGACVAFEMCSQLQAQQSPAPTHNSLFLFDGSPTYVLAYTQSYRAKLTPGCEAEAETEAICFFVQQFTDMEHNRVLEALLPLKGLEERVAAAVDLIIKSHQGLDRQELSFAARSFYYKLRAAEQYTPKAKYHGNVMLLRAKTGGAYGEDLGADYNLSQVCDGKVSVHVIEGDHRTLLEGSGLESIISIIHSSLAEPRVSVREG"}, "[3]": {"system": "3T3-L1", "settings": "3T3-L1 preadipocyte"}, "[4]": {"system": "glucose transport at the brush border of the small intestine", "settings": "in vivo"}, "[5]": {"system": "lipases", "settings": "in vivo"}}}
{"smiles": "C=CC(C)(C)c1cc2cc3c(cc2oc1=O)O[C@H](C(C)(C)O)C3", "note": "[chalepin]", "values": [{"measurement": "oxidative uncoupling", "setting": "[1]", "value": "act as oxidative uncouplers"}]}
{"smiles": "Cc1cc(O)c2c(c1)C(=O)c1cc(O)cc(O)c1C2=O", "note": "[emodin, 3-methyl-1,6,8-trihydroxy-anthraquinone]", "values": [{"measurement": "inhibition effect on fatty acid synthase", "setting": "[2]", "value": "inhibition effect on fatty acid synthase, which is dose dependent"}, {"measurement": "inhibition of differentiation of 3T3-L1", "setting": "[3]", "value": "inhibition of differentiation of 3T3-L1"}]}
{"smiles": "CC1(C)CC[C@]2(C(=O)O)CC[C@]3(C)C(=CC[C@@H]4[C@@]5(C)CC[C@H](O)C(C)(C)[C@@H]5CC[C@]43C)[C@@H]2C1", "note": "[oleanic acid]", "values": [{"measurement": "glucose transport at the brush border of the small intestine", "setting": "[4]", "value": "inhibiting glucose transport at the brush border of the small intestine"}, {"measurement": "transfer of glucose from the stomach to the small intestine", "setting": "[4]", "value": "suppress the transfer of glucose from the stomach to the small intestine"}]}
{"smiles": "CCCCCCCCCCC[C@@H](C[C@@H]1OC(=O)[C@H]1CCCCCC)OC(=O)[C@H](CC(C)C)NC=O", "note": "[Xenical]", "values": [{"measurement": "dietary fat blocked from being absorbed", "setting": "[5]", "value": "about 30%"}]}
{"smiles": "CC(C)(O)[C@@H]1Cc2cc3ccc(=O)oc3cc2O1", "note": "[marmesin]", "values": [{"measurement": "oxidative uncoupling", "setting": "[1]", "value": "act as oxidative uncouplers"}]}
{"smiles": "CC(C)=CCOc1c2occc2cc2ccc(=O)oc12", "note": "[imperatorin]", "values": [{"measurement": "oxidative uncoupling", "setting": "[1]", "value": "act as oxidative uncouplers"}]}
